Assay results as given in ChEMBL document CHEMBL5634112, “Synthesis and biological evaluation of fluoroquinolones containing a pyridoxine derivatives moiety” (Eur J Med Chem, 2023).
≈ marks a conversion by molar mass, not a printed value.

What was measured:
[1] = system: Staphylococcus aureus; assay: Antibacterial activity against methicillin sensitive Staphylococcus aureus ATCC 29213 assessed as reduction in microbial growth incubated for 24 hrs by broth microdilution method; format: functional
[2] = system: Staphylococcus epidermidis; assay: Antibacterial activity against clinical isolate Staphylococcus epidermidis assessed as reduction in microbial growth incubated for 24 hrs by broth microdilution method; format: functional
[3] = system: Micrococcus luteus; assay: Antibacterial activity against clinical isolate Micrococcus luteus assessed as reduction in microbial growth incubated for 24 hrs by broth microdilution method; format: functional
[4] = system: Enterococcus faecalis; assay: Antibacterial activity against clinical isolate Enterococcus faecalis 1465 assessed as reduction in microbial growth incubated for 24 hrs by broth microdilution method; format: functional
[5] = system: Staphylococcus haemolyticus; assay: Antibacterial activity against clinical isolate Staphylococcus haemolyticus NKC 31/2 assessed as reduction in microbial growth incubated for 24 hrs by broth microdilution method; format: functional
[6] = system: Staphylococcus aureus; assay: Antibacterial activity against clinical isolate Staphylococcus aureus 1812 assessed as reduction in microbial growth incubated for 24 hrs by broth microdilution method; format: functional
[7] = system: Bacillus subtilis; assay: Antibacterial activity against Bacillus subtilis 168 assessed as reduction in microbial growth incubated for 24 hrs by broth microdilution method; format: functional
[8] = system: Klebsiella aerogenes; assay: Antibacterial activity against clinical isolate Enterobacter aerogenes NKC 8 assessed as reduction in microbial growth incubated for 24 hrs by broth microdilution method; format: functional
[9] = system: Staphylococcus aureus; assay: Antibacterial activity against clinical isolate Staphylococcus aureus 4721 assessed as reduction in microbial growth incubated for 24 hrs by broth microdilution method; format: functional
[10] = system: Staphylococcus epidermidis; assay: Antibacterial activity against clinical isolate Staphylococcus epidermidis NKC 37/1 assessed as reduction in microbial growth incubated for 24 hrs by broth microdilution method; format: functional
[11] = Cytotoxicity against human HSF assessed as reduction in cell viability incubated for 72 hrs by MTT assay; format: toxicity, cell-based; conditions: HSF cells
[12] = system: Staphylococcus aureus; assay: Antibacterial activity against clinical isolate methicillin resistant Staphylococcus aureus 4771 assessed as reduction in microbial growth incubated for 24 hrs by broth microdilution method; format: functional
[13] = system: Escherichia coli; assay: Antibacterial activity against Escherichia coli ATCC 25922 assessed as reduction in microbial growth incubated for 24 hrs by broth microdilution method; format: functional
[14] = system: Staphylococcus auricularis; assay: Antibacterial activity against clinical isolate Staphylococcus auricularis NKC 7 assessed as reduction in microbial growth incubated for 24 hrs by broth microdilution method; format: functional
[15] = Cytotoxicity against human MSC assessed as reduction in cell viability incubated for 72 hrs by MTT assay; format: toxicity, cell-based; conditions: MSC cells
[16] = system: Pseudomonas aeruginosa; assay: Antibacterial activity against Pseudomonas aeruginosa ATCC 27853 assessed as reduction in microbial growth incubated for 24 hrs by broth microdilution method; format: functional
[17] = system: Pseudomonas aeruginosa; assay: Antibacterial activity against clinical isolate Pseudomonas aeruginosa NKC 17 assessed as reduction in microbial growth incubated for 24 hrs by broth microdilution method; format: functional
[18] = system: Staphylococcus haemolyticus; assay: Antibacterial activity against clinical isolate Staphylococcus haemolyticus 1464 assessed as reduction in microbial growth incubated for 24 hrs by broth microdilution method; format: functional
[19] = system: Klebsiella pneumoniae; assay: Antibacterial activity against clinical isolate Klebsiella pneumoniae 1678 assessed as reduction in microbial growth incubated for 24 hrs by broth microdilution method; format: functional
[20] = system: Salmonella typhimurium; assay: Antibacterial activity against Salmonella typhimurium TA100 assessed as reduction in microbial growth incubated for 24 hrs by broth microdilution method; format: functional, Salmonella enterica subsp. enterica serovar Typhimurium; conditions: Salmonella enterica
[21] = Cytotoxicity against human CHL assessed as reduction in cell viability incubated for 72 hrs by MTT assay; format: toxicity, cell-based; conditions: CHL cells
[22] = system: Escherichia coli; assay: Antibacterial activity against clinical isolate Escherichia coli NKC 1 assessed as reduction in microbial growth incubated for 24 hrs by broth microdilution method; format: functional
[23] = system: Cedecea davisae; assay: Antibacterial activity against clinical isolate Cedecea davisae 1813 assessed as reduction in microbial growth incubated for 24 hrs by broth microdilution method; format: functional

SMILES	MIC [1]	MIC [2]	MIC [3]	MIC [4]	MIC [5]	MIC [6]	MIC [7]	MIC [8]	MIC [9]	MIC [10]	CC50 at 72 h [11]	MIC [12]	MIC [13]	MIC [14]	CC50 at 72 h [15]	MIC [16]	MIC [17]	MIC [18]	MIC [19]	MIC [20]	also measured
CCn1cc(C(=O)O)c(=O)c2cc(F)c(N3CCN(Cc4nc(C)c5c(c4CO)COC(C)(C)O5)CC3)cc21	2 µg/mL	8 µg/mL	4 µg/mL	> 64 µg/mL	32 µg/mL	8 µg/mL	2 µg/mL	32 µg/mL	4 µg/mL	4 µg/mL	24.9 µg/mL (≈ 46 µM)	4 µg/mL	> 64 µg/mL	0.25 µg/mL	16.2 µg/mL (≈ 30 µM)	> 64 µg/mL	64 µg/mL	4 µg/mL	> 64 µg/mL	2 µg/mL	CC50 at 72 h [21]: 7.05 µg/mL (≈ 13 µM); MIC [22]: 16 µg/mL; MIC [23]: 2 µg/mL
CCn1cc(C(=O)O)c(=O)c2cc(F)c(N3CCNCC3)cc21 [NORFLOXACIN]	2 µg/mL	1 µg/mL	8 µg/mL	> 64 µg/mL	8 µg/mL	2 µg/mL	1 µg/mL	1 µg/mL	1 µg/mL	4 µg/mL	38.1 µg/mL (≈ 119 µM)	1 µg/mL	1 µg/mL	0.13 µg/mL	29.3 µg/mL (≈ 91.9 µM)	4 µg/mL	0.25 µg/mL	2 µg/mL	1 µg/mL	1 µg/mL	CC50 at 72 h [21]: 38.1 µg/mL (≈ 119 µM); MIC [22]: 0.06 µg/mL; MIC [23]: 1 µg/mL
COc1c(N2C[C@@H]3CCCN(Cc4nc(C)c(O)c(CO)c4CO)[C@@H]3C2)c(F)cc2c(=O)c(C(=O)O)cn(C3CC3)c12.Cl	2 µg/mL	2 µg/mL	2 µg/mL	4 µg/mL	8 µg/mL	0.5 µg/mL	2 µg/mL	4 µg/mL	0.5 µg/mL	0.25 µg/mL	33.9 µg/mL	0.25 µg/mL	> 64 µg/mL	0.03 µg/mL	31.7 µg/mL	> 64 µg/mL	32 µg/mL	0.5 µg/mL	64 µg/mL	2 µg/mL	CC50 at 72 h [21]: 24.2 µg/mL; MIC [22]: 2 µg/mL; MIC [23]: 0.25 µg/mL
CCn1cc(C(=O)O)c(=O)c2cc(F)c(N3CCN(Cc4cnc(C)c5c4COCO5)CC3)cc21.Cl	2 µg/mL	2 µg/mL	4 µg/mL	32 µg/mL	8 µg/mL	2 µg/mL	2 µg/mL	1 µg/mL	1 µg/mL	2 µg/mL	23.4 µg/mL	1 µg/mL	4 µg/mL	0.03 µg/mL	21.2 µg/mL	> 64 µg/mL	2 µg/mL	1 µg/mL	4 µg/mL	2 µg/mL	CC50 at 72 h [21]: 9.78 µg/mL; MIC [22]: 0.13 µg/mL; MIC [23]: 0.25 µg/mL
CCn1cc(C(=O)O)c(=O)c2cc(F)c(N3CCNC(C)C3)c(F)c21 (stereo not drawn) [LOMEFLOXACIN]	0.5 µg/mL	2 µg/mL	1 µg/mL	> 64 µg/mL	8 µg/mL	2 µg/mL	0.5 µg/mL	1 µg/mL	1 µg/mL	2 µg/mL	46.2 µg/mL (≈ 131 µM)	1 µg/mL	1 µg/mL	0.06 µg/mL	35.7 µg/mL (≈ 102 µM)	4 µg/mL	1 µg/mL	0.5 µg/mL	1 µg/mL	1 µg/mL	CC50 at 72 h [21]: 31.3 µg/mL (≈ 89.1 µM); MIC [22]: 0.06 µg/mL; MIC [23]: 0.25 µg/mL
CCn1cc(C(=O)O)c(=O)c2cc(F)c(N3CCN(Cc4cnc(C)c(O)c4CO)C(C)C3)c(F)c21.Cl (stereo not drawn)	2 µg/mL	1 µg/mL	0.5 µg/mL	8 µg/mL	16 µg/mL	1 µg/mL	0.5 µg/mL	8 µg/mL	1 µg/mL	1 µg/mL	22.3 µg/mL	1 µg/mL	8 µg/mL	0.13 µg/mL	13.1 µg/mL	4 µg/mL	> 64 µg/mL	1 µg/mL	> 64 µg/mL	2 µg/mL	CC50 at 72 h [21]: 7.85 µg/mL; MIC [22]: 2 µg/mL; MIC [23]: 2 µg/mL
